Reference: patent US20220257557A1, “PHARMACEUTICAL COMPOSITION FOR PREVENTING OR TREATING NEUROLOGICAL DISEASES” (GLACEUM INC., priority 2019, published 2022)

How the values were obtained:
RAW264.7 cells [1] = test: iNOS and COX-2 expression after LPS (Western blot); assay type: cell-based; conditions: 3 h pretreatment (Table 3 amounts), LPS 1 μg/ml 24 h
Method: (§1) RAW264.7 cells or BV2 cells (5×10^5 cells/well) were dispensed in DMEM containing 10% heat-inactivated FBS, 10 IU/mL penicillin G, 100 μg/mL streptomycin and 2 mM L-glutamine and cultured in a 5% CO2 incubator at a temperature of 37° C.
(§2) The compound of Formula III-3, III-4, V-3, III-1, IV-1, V-1, IV-2, V-2 or II-2 was added to the RAW264.7 cells or BV2 cells, and the toxicities of the compounds were determined by MTT assay.
(§3) The pretreated cells of Experimental Example 4-1 were treated with 1 μg/ml of LPS for 24 hours, and then the expression levels of iNOS and COX-2 were observed through Western blot, and the production of NO and PGE2 was measured.

BV2 cells [2] = test: iNOS and COX-2 expression after LPS (Western blot); assay type: cell-based; conditions: 3 h pretreatment (Table 3 amounts), LPS 1 μg/ml 24 h
Method: as §1, §2, §3

RAW264.7 cells [3] = test: IL-1β, IL-6 and TNF-α mRNA expression after LPS (RT-PCR); assay type: cell-based; conditions: 3 h pretreatment (Table 3 amounts), LPS 1 μg/ml 6 h
Method: as §1, §2
(§4) The pretreated cells of Experimental Example 4-1 were treated with 1 μg/ml of LPS for 6 hours, and then the mRNA expression level of the cytokine IL-1β, IL-6 or TNF-α produced in the inflammatory response was analyzed using RT-PCR.

BV2 cells [4] = test: as above; assay type: cell-based; conditions: 3 h pretreatment (Table 3 amounts), LPS 1 μg/ml 6 h
Method: as §1, §2, §4

BV2 cells [5] = test: Transcription of NF-κB protein (p65, p50) into nucleus after LPS (Western blot); assay type: cell-based; conditions: 3 h pretreatment (Table 3 amounts), LPS 1 μg/ml 1 h
Method: as §1, §2
(§5) The pretreated cells of Experimental Example 4-1 were treated with 1 μg/ml of LPS for 1 hour, and then the level of transcription of NF-κB protein into the nucleus of each of p65 and p50 was analyzed through Western blot.

RAW264.7 cells [6] = test: NO and PGE2 production after LPS; assay type: cell-based; conditions: 3 h pretreatment (Table 3 amounts), LPS 1 μg/ml 24 h
Method: as §1, §2, §3

BV2 cells [7] = test: NO and PGE2 production after LPS; assay type: cell-based; conditions: 3 h pretreatment (Table 3 amounts), LPS 1 μg/ml 24 h
Method: as §1, §2, §3

[8] = target: T1, rePON1 (PON1, paraoxonase 1) (Homo sapiens, UniProt P27169); test: Prevention of inhibition of PON1 activity by oxidized linolenic acid (TBBL substrate); assay type: biochemical; conditions: for activity at 30 µM: 30 μM compound with rePON1 30 min, then oxidized linolenic acid 2 h, TBBL substrate, normal control 100, negative control 73.64; for extent to which inhibition of rePON1 activity was prevented, compared with glabridin: compound 30 μM vs glabridin 30 μM; for extent to which inhibition of rePON1 activity was prevented, compared with glabridin / inhibition of rePON1 activity by oxidized linolenic acid: result in words; for inhibition of rePON1 activity by oxidized linolenic acid: compound 30 μM
T1 construct: purchased Thermo Corp. RP-75678
T1 sequence (P27169 whole entry): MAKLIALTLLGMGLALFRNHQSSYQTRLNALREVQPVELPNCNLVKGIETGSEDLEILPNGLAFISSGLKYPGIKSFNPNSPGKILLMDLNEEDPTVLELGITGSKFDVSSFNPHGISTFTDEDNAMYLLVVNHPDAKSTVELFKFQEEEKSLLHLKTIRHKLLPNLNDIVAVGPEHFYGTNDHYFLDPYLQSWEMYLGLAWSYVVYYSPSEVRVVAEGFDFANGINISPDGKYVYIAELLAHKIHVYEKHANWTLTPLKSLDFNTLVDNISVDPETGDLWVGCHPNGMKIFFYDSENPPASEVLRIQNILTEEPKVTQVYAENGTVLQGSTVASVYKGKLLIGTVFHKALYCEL
Method: Based on the fact that the activity of PON1 is inhibited when PON1 is treated with oxidized linolenic acid, an experiment was conducted to confirm the prevention of inhibition of PON1 activity. The activity of PON1 was measured using TBBL (5-thiobutyl butyrolactones) as a substrate.
Specifically, after 9.6 μl of 50 mM Tris-HCl containing 1 mM CaCl2 was added to each of […] Eppendorf tubes, 0.2 μl of each of the compounds of Formulas III-1, IV-1, V-1, IV-2, V-2, II-1, IV-3, V-3, III-2, IV-4, V-4, II-2 and III-3 and glabridine was added to each tube so that the concentration thereof was 30 μM. 0.2 μl of rePON1 (RP-75678, Thermo Corp.) was added to each of the 12 tubes and mixed. Thereafter, each of the mixtures was allowed to react at room temperature for 30 minutes, and 0.5 μl of 1 mM oxidized linolenic acid (OX-LA) dissolved in DMSO was added thereto in order to inhibit rePON1 activity, followed by reaction at room temperature for 2 hours, thus preparing solutions (I).
25 μl of 0.5 mM DTNB dissolved in 50 mM Tris-HCl containing 1 mM CaCl2 was dispensed into each well of a 384-well plate, and then 10 μl of each of the solutions (I) was dispensed into each well, and 20 μl of 2 mM TBBL dissolved in 50 mM Tris-HCl containing 1 mM CaCl2 was added to each well, thus preparing samples. The absorbance of each of the samples at 420 nm was measured using a spectrometer (SpectraMax M2) at 37° C. every 2 minutes for 1 hour.
In addition, a negative control was prepared in the same manner as the above-described method, except that, for the preparation of a solution, 0.2 μl of DMSO was added instead of the compounds of Formulas III-1, IV-1, V-1, IV-2, V-2, II-1, IV-3, V-3, III-2, IV-4, V-4, II-2 and III-3 and glabridin. Furthermore, a normal control was prepared in the same manner as the above-described method, except that, for the preparation of a solution, 0.2 μl of DMSO was added instead of the above-described compounds and glabridin and that oxidized linolenic acid was not added. The absorbance of each of the negative control and the normal control was measured.
Using SoftMax Pro software, the activity of PON1 was calculated from the absorbance using the following Equation 1, and the results are shown in Table 1 below.
Activity=(absorbancesample−absorbanceblank)/(absorbancePON1−absorbanceblank)*100 [Equation 1]

RAW264.7 cells [9] = test: Transcription of NF-κB protein (p65, p50) into nucleus after LPS (Western blot); assay type: cell-based; conditions: 3 h pretreatment (Table 3 amounts), LPS 1 μg/ml 1 h
Method: RAW264.7 cells or BV2 cells (5×10^5 cells/well) were dispensed in DMEM containing 10% heat-inactivated FBS, 10 IU/mL penicillin G, 100 μg/mL streptomycin and 2 mM L-glutamine and cultured in a 5% CO2 incubator at a temperature of 37° C. […]
as §5

Structure (SMILES)	expression level of COX-2 (RAW264.7 cells [1])	expression level of iNOS (RAW264.7 cells [1])	expression level of COX-2 (BV2 cells [2])	expression level of iNOS (BV2 cells [2])	mRNA expression level of IL-1β (RAW264.7 cells [3])	mRNA expression level of IL-6 (RAW264.7 cells [3])	mRNA expression level of TNF-α (RAW264.7 cells [3])	mRNA expression level of IL-1β (BV2 cells [4])	mRNA expression level of IL-6 (BV2 cells [4])	mRNA expression level of TNF-α (BV2 cells [4])	level of transcription of NF-κB protein into the nucleus, p50 (BV2 cells [5])	level of transcription of NF-κB protein into the nucleus, p65 (BV2 cells [5])	production of NO (RAW264.7 cells [6])	production of PGE2 (RAW264.7 cells [6])	production of NO (BV2 cells [7])	production of PGE2 (BV2 cells [7])	activity at 30 µM [8]	extent to which inhibition of rePON1 activity was prevented, compared with glabridin [8]	level of transcription of NF-κB protein into the nucleus, p50 (RAW264.7 cells [9])	level of transcription of NF-κB protein into the nucleus, p65 (RAW264.7 cells [9])	further results
CCCc1ccc([C@H]2COc3c(ccc4c3CCC(C)(C)O4)C2)c(O)c1 [Formula V-3, (S)-2-(8,8-dimethyl-2,3,4,8,9,10-hexahydropyrano[2,3-f]chromen-3-yl)-5-propylphenol]	concentration-dependently decreased	concentration-dependently decreased	concentration-dependently decreased	concentration-dependently decreased	concentration-dependently decreased	concentration-dependently decreased	concentration-dependently decreased	concentration-dependently decreased	concentration-dependently decreased	concentration-dependently decreased	concentration-dependently decreased	concentration-dependently decreased	concentration-dependently decreased	concentration-dependently decreased	concentration-dependently decreased	concentration-dependently decreased	95.1%	greater	concentration-dependently decreased	concentration-dependently decreased	inhibition of rePON1 activity by oxidized linolenic acid [8]: prevented
CC1(C)C=Cc2c(ccc3c2OC[C@@H](c2ccc(O)cc2O)C3)O1 [Glabridin, glabridin, reference compound]	did not decrease	did not decrease	did not decrease	did not decrease	did not decrease	did not decrease	did not decrease	did not decrease	did not decrease	did not decrease	did not decrease	did not decrease	did not decrease	did not decrease	did not decrease	did not decrease	82.8%		did not decrease	did not decrease	
CCOc1ccc([C@@H]2COc3c(ccc4c3CCC(C)(C)O4)C2)c(O)c1 [Formula IV-1, (R)-2-(8,8-dimethyl-2,3,4,8,9,10-hexahydropyrano[2,3-f]chromen-3-yl)-5-ethoxyphenol]	concentration-dependently decreased	concentration-dependently decreased	concentration-dependently decreased	concentration-dependently decreased	concentration-dependently decreased	concentration-dependently decreased	concentration-dependently decreased	concentration-dependently decreased	concentration-dependently decreased	concentration-dependently decreased	concentration-dependently decreased	concentration-dependently decreased	concentration-dependently decreased	concentration-dependently decreased	concentration-dependently decreased	concentration-dependently decreased	95%	greater	concentration-dependently decreased	concentration-dependently decreased	inhibition of rePON1 activity by oxidized linolenic acid [8]: prevented
